Results on 22 molecules are retold here after patent US8273774B2, “Phenoxypyridinylamide compounds” (AstraZeneca AB, priority 2008, dated 2012).

Sequence of recombinant Human Phosphodiesterase B2 (PDE4B2) (Q07343 1-564 isoform Q07343-2): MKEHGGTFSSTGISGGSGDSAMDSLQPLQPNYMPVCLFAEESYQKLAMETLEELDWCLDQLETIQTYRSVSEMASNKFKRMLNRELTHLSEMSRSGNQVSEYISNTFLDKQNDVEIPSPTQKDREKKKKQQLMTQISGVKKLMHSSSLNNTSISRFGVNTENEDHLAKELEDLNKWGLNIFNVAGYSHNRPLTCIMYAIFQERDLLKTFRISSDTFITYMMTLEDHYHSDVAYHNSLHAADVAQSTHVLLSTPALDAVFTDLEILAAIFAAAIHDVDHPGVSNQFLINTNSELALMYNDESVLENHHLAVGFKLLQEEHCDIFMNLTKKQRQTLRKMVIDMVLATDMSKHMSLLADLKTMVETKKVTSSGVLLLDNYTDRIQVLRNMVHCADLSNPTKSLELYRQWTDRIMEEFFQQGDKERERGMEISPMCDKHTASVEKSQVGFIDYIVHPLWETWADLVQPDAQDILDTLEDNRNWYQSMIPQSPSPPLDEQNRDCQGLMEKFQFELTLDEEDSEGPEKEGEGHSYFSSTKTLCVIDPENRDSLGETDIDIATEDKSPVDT

The assay concerns the target recombinant Human Phosphodiesterase B2 (PDE4B2) (Homo sapiens, UniProt Q07343). Nature of the assay: Human Phosphodiesterase B2 Radiometric Assay. It counts as biochemical. To be noted: 0.1 μg/mL recombinant PDE4B2; preincubated at 30 C for 30 min; [3H]cyclic AMP 8 nM, stopped after 20 min; yttrium silicate SPA beads; read-out: PDE4B2 pIC50 (converted). On the procedure:
Human Phosphodiesterase B2 Radiometric Assay
The assay uses recombinant Human Phosphodiesterase B2 (PDE4B2) produced in house (PrAZL0163), stored at −20° C. This assay is based on the observation that 5′AMP, the product of the reaction catalysed by PDE4, binds preferentially to yttrium silicate SPA beads (Amersham Biosciences, UK) compared to the substrate, cAMP. Compounds at the appropriate concentration were preincubated at 30 C for 30 min with an assay buffer containing 50 mM HEPES (pH 7.5), 8.3 mM MgCl2, 1.7 mM EGTA, 0.01% (w/v) Brij®35 and 0.1 μg/mL recombinant PDE4B2. The reaction was started by the addition of [3H]cyclic AMP to give a final concentration of 8 nM, and was stopped 20 min after the addition of the substrate by the addition of yttrium silicate SPA beads containing 18 mM Zn SO4. Bound […] was measured using a Topcount NXT (Packard Bioscience, UK). pIC50 values (presented in Table 2) were determined using Xlfit3 curve fitting, using model 205.
Turning to `C[C@@H]1CN(Cc2cc(-c3cccc(Oc4ncc(F)cc4C(=O)N[C@H]4CC[C@@H](NC(=O)c5cn6cc(F)ccc6n5)CC4)c3)ccc2O)C[C@H](C)N1` [Example 84, N-((1s,4s)-4-(2-(3′-(((3S,5R)-3,5-dimethylpiperazin-1-yl)methyl)-4′-hydroxybiphenyl-3-yloxy)-5-fluoronicotinamido)cyclohexyl)-6-fluoroimidazo[1,2-a]pyridine-2-carboxamide], the IC50 was 0.158 nM. Under `O=C(N[C@H]1CC[C@@H](NC(=O)c2cc(F)cnc2Oc2cccc(-c3ccc(CCCN4CCNCC4)cc3)c2)CC1)c1cn2cc(F)ccc2n1` [Example 121, 6-fluoro-N-((1s,4s)-4-(5-fluoro-2-(4′-(3-(piperazin-1-yl)propyl)biphenyl-3-yloxy)nicotinamido)cyclohexyl)imidazo[1,2-a]pyridine-2-carboxamide] stands 0.0631 nM; under `Cc1ncsc1C(=O)N[C@H]1CC[C@@H](NC(=O)c2cc(F)cnc2Oc2cccc(-c3ccc(O)cc3CN3CCOCC3)c2)CC1` [Example 33, N-((1s,4s)-4-(5-fluoro-2-(4′-hydroxy-2′-(morpholinomethyl)biphenyl-3-yloxy)nicotinamido)cyclohexyl)-4-methylthiazole-5-carboxamide], 0.631 nM. As for `Cc1cc(C(=O)N[C@H]2CC[C@@H](NC(=O)c3cc(F)cnc3Oc3cccc(-c4ccc(CCN5CCCN(C)CC5)cc4)c3)CC2)nn1C` [Example 166, N-((1s,4s)-4-(1,5-Dimethyl-1H-pyrazole-3-carboxamido)cyclohexyl)-5-fluoro-2-(4′-(2-(4-methyl-1,4-diazepan-1-yl)ethyl)biphenyl-3-yloxy)nicotinamide], the IC50 was 0.0398 nM. Under `Cc1nc(C(=O)N[C@H]2CC[C@@H](NC(=O)c3cc(F)cnc3Oc3cccc(-c4ccc(O)cc4CN4CCN(C(C)C)CC4)c3)CC2)cs1` [Example 25, N-((1s,4s)-4-(5-fluoro-2-(4′-hydroxy-2′-((4-isopropylpiperazin-1-yl)methyl)biphenyl-3-yloxy)nicotinamido)cyclohexyl)-2-methylthiazole-4-carboxamide] stands 3.16 nM. Then `Cc1cccc2nc(CN[C@H]3CC[C@@H](NC(=O)c4cc(F)cnc4Oc4cccc(-c5ccc(O)cc5CN5CCOCC5)c4)CC3)cn12` [Example 8, 5-fluoro-2-(4′-hydroxy-2′-(morpholinomethyl)biphenyl-3-yloxy)-N-((1s,4s)-4-((5-methylimidazo[1,2-a]pyridin-2-yl)methylamino)cyclohexyl)nicotinamide], with 0.631 nM; and `O=C(NC1CCC(NC(=O)c2cc(F)cnc2Oc2cccc(-c3ccc(CCCN4CCNCC4)cc3)c2)CC1)c1nc(CO)cs1` (stereo not shown) [Example 187, N-((1s,4s)-4-(5-Fluoro-2-(4′-(3-(piperazin-1-yl)propyl)biphenyl-3-yloxy)nicotinamido)cyclohexyl)-4-(hydroxymethyl)thiazole-2-carboxamide], with 0.2 nM; and `O=C(N[C@H]1CC[C@@H](NC(=O)c2cc(F)cnc2Oc2cccc(-c3ccc(CNCCCN4CCOCC4)cc3)c2)CC1)c1cn2cc(F)ccc2n1` [Example 115, 6-fluoro-N-((1s,4s)-4-(5-fluoro-2-(4′-((3-morpholinopropylamino)methyl)biphenyl-3-yloxy)nicotinamido)cyclohexyl)imidazo[1,2-a]pyridine-2-carboxamide], with 0.631 nM. In the case of `Cc1cccc(C(=O)N[C@H]2CC[C@@H](NC(=O)c3cc(F)cnc3Oc3cccc(-c4ccc(CCCNCCCO)cc4)c3)CC2)n1` [Example 158, N-((1s,4s)-4-(5-Fluoro-2-(4′-(3-(3-hydroxypropylamino)propyl)biphenyl-3-yloxy)nicotinamido)cyclohexyl)-6-methylpicolinamide], the IC50 was 0.0316 nM. Consider `Cc1nc(C(=O)N[C@H]2CC[C@@H](NC(=O)c3cc(F)cnc3Oc3cccc(-c4ccc(O)cc4CN(C)CC(=O)N(C)C)c3)CC2)cs1` [Example 30, N-((1s,4s)-4-(2-(2′-(((2-(dimethylamino)-2-oxoethyl)(methyl)amino)methyl)-4′-hydroxybiphenyl-3-yloxy)-5-fluoronicotinamido)cyclohexyl)-2-methylthiazole-4-carboxamide], for which the IC50 is 0.0398 nM.

On to `CN1CCCN(CCc2ccc(-c3cccc(Oc4ncc(F)cc4C(=O)N[C@H]4CC[C@@H](NC(=O)c5cc6n(n5)CCCC6)CC4)c3)cc2)CC1` [Example 171, N-((1s,4s)-4-(5-Fluoro-2-(4′-(2-(4-methyl-1,4-diazepan-1-yl)ethyl)biphenyl-3-yloxy)nicotinamido)cyclohexyl)-4,5,6,7-tetrahydropyrazolo[1,5-a]pyridine-2-carboxamide], for which the IC50 was 0.0794 nM. Regarding `Cc1nc(C(=O)N[C@H]2CC[C@@H](NC(=O)c3cc(F)cnc3Oc3cccc(-c4ccc(CCCN5CCNCC5)cc4)c3)CC2)cs1` [Example 74, N-((1s,4s)-4-(5-fluoro-2-(4′-(3-(piperazin-1-yl)propyl)biphenyl-3-yloxy)nicotinamido)cyclohexyl)-2-methylthiazole-4-carboxamide], the IC50 was 0.0251 nM. Then `C[C@@H]1CN(Cc2ccc(-c3cccc(Oc4ncc(F)cc4C(=O)N[C@H]4CC[C@@H](NC(=O)c5cc6n(n5)CCCC6)CC4)c3)c(CN3CCOCC3)c2)C[C@H](C)N1` [Example 124, N-((1s,4s)-4-(2-(4′-(((3S,5R)-3,5-dimethylpiperazin-1-yl)methyl)-2′-(morpholinomethyl)biphenyl-3-yloxy)-5-fluoronicotinamido)cyclohexyl)-4,5,6,7-tetrahydropyrazolo[1,5-a]pyridine-2-carboxamide], with 0.0501 nM.

For the molecule `Cc1cc(C(=O)N[C@H]2CC[C@@H](NC(=O)c3cc(F)cnc3Oc3cccc(-c4ccc(CCCN5C[C@@H](C)N[C@@H](C)C5)cc4)c3)CC2)[nH]n1` [Example 156, 2-(4′-(3-((3S,5R)-3,5-Dimethylpiperazin-1-yl)propyl)biphenyl-3-yloxy)-5-fluoro-N-((1s,4s)-4-(3-methyl-1H-pyrazole-5-carboxamido)cyclohexyl)nicotinamide], the IC50 was 0.126 nM. `Cc1csc(C(=O)N[C@H]2CC[C@@H](NC(=O)c3cc(F)cnc3Oc3cccc(-c4ccc(O)cc4CN4CCOCC4)c3)CC2)n1` [Example 45, N-((1s,4s)-4-(5-fluoro-2-(4′-hydroxy-2′-(morpholinomethyl)biphenyl-3-yloxy)nicotinamido)cyclohexyl)-4-methylthiazole-2-carboxamide]: the IC50 is 0.0158 nM. With `O=C(N[C@H]1CC[C@@H](NC(=O)c2cc(F)cnc2Oc2cccc(-c3ccc(O)cc3CN3CCOCC3)c2)CC1)c1csc(C(F)(F)F)n1` [Example 36, N-((1s,4s)-4-(5-fluoro-2-(4′-hydroxy-2′-(morpholinomethyl)biphenyl-3-yloxy)nicotinamido)cyclohexyl)-2-(trifluoromethyl)thiazole-4-carboxamide], the IC50 is 0.1 nM. For `Cc1cc(C(=O)N[C@H]2CC[C@@H](NC(=O)c3cc(F)cnc3Oc3cccc(-c4ccc(O)cc4CN4CCSCC4)c3)CC2)nn1C` [Example 22, N-((1s,4s)-4-(1,5-dimethyl-1H-pyrazole-3-carboxamido)cyclohexyl)-5-fluoro-2-(4′-hydroxy-2′-(thiomorpholinomethyl)biphenyl-3-yloxy)nicotinamide], the IC50 was 0.0398 nM.

Consider `Cc1nc(C(=O)N[C@H]2CC[C@@H](NC(=O)c3cc(F)cnc3Oc3cccc(-c4ccc(CN5C[C@@H](C)N[C@@H](C)C5)c(O)c4)c3)CC2)cs1` [Example 98, N-((1s,4s)-4-(2-(4′-(((3S,5R)-3,5-dimethylpiperazin-1-yl)methyl)-3′-hydroxybiphenyl-3-yloxy)-5-fluoronicotinamido)cyclohexyl)-2-methylthiazole-4-carboxamide], for which the IC50 is 0.1 nM. For the molecule `Cc1nc(C(=O)N[C@H]2CC[C@@H](NC(=O)c3cc(F)cnc3Oc3cccc(-c4ccc(CN5CCCOCC5)cc4)c3)CC2)cs1` [Example 55, N-((1s,4s)-4-(2-(4′-((1,4-oxazepan-4-yl)methyl)biphenyl-3-yloxy)-5-fluoronicotinamido)cyclohexyl)-2-methylthiazole-4-carboxamide], the IC50 is 0.1 nM. Then `Cc1cc(C)n2nc(C(=O)N[C@H]3CC[C@@H](NC(=O)c4cc(F)cnc4Oc4cccc(-c5ccc(CN6CCCN(CCO)CC6)cc5CN5CCOC[C@@H]5C)c4)CC3)cc2n1` [Example 179, N-((1s,4s)-4-(5-Fluoro-2-(4′-((4-(2-hydroxyethyl)-1,4-diazepan-1-yl)methyl)-2′-(((S)-3-methylmorpholino)methyl)biphenyl-3-yloxy)nicotinamido)cyclohexyl)-5,7-dimethylpyrazolo[1,5-a]pyrimidine-2-carboxamide], with 0.0501 nM. Under `Cc1nc(C(=O)N[C@H]2CC[C@@H](NC(=O)c3cc(F)cnc3Oc3cccc(-c4ccc(O)cc4CN4C[C@@H](C)O[C@@H](C)C4)c3)CC2)cs1` [Example 24, N-((1s,4s)-4-(2-(2′-(((2S,6R)-2,6-dimethylmorpholino)methyl)-4′-hydroxybiphenyl-3-yloxy)-5-fluoronicotinamido)cyclohexyl)-2-methylthiazole-4-carboxamide] stands 0.1 nM; under `C[C@@H]1CN(CCCc2ccc(-c3cccc(Oc4ncc(F)cc4C(=O)N[C@H]4CC[C@@H](NC(=O)c5ccn(C)n5)CC4)c3)cc2)C[C@H](C)N1` [Example 165, 2-(4′-(3-((3S,5R)-3,5-Dimethylpiperazin-1-yl)propyl)biphenyl-3-yloxy)-5-fluoro-N-((1s,4s)-4-(1-methyl-1H-pyrazole-3-carboxamido)cyclohexyl)nicotinamide], 0.0631 nM.
